Two compounds from patent US20240391928A1, “COMPOSITIONS FOR THE TREATMENT OF FOOD AND CHEMICAL ADDICTION AND METHODS OF MAKING AND USING SAME” (Duke University, priority 2021, published 2024) can be followed below.

Holding throughout (format): cell-based
Test [1] has as its system human hGHSR1a-vasopressin receptor 2 tail chimera. Put plainly: β-arr2^GFP translocation, compound screening (U2OS). Conditions: secondary assay of HTS hits; for Beta-arrestin translocation ECmax (%): normalized to L585; for EC50: read-out: Beta-arrestin translocation EC50.
Test [2] addresses hGHSR1a^WT (Homo sapiens, UniProt Q92847). Nature of the test: Gαq-dependent intracellular Ca2+ mobilization (iCa2+, miAeq). Set-up: HEK293/T (transient); HEK293S Gαq knockout (transient, NanoBiT Gαq). The conditions noted are these: for Calcium signaling ECmax (%) / EC50: secondary assay of HTS hits; for Calcium signaling ECmax (%): normalized to L585; for EC50: read-out: Calcium signaling EC50. As to the method: Gαq-Dependent Intracellular Ca^2+ Mobilization. […] Cells were split into and seeded into 10 cm dishes without antibiotic selection and grown to confluency overnight. The next morning, cells were serum starved in 10 mL of clear opti-MEM (supplemented with L-glutamine and HEPES; Gibco, Waltham, MA) for 3-4 hours in a 37° C. incubator with 5% CO2. Then, 25 μL of coelenterazine H (NanoLight Technology, Pinetop, AZ) was added to each 10 mL dish and incubated for another 1-2 hours. For antagonist assays, test compounds were either added directly to the media in 10 cm dishes, or cells were collected by gentle washing/trituration and plated onto white, clear-bottomed 96-well plates for 30 minutes—1 hour. Once the coelenterazine H (or antagonist) incubation was complete, cells were harvested from the 10 cm dish by gentle washing/trituration and collected in a 15 mL conical tube. Cell suspensions were then immediately subjected to assay by injecting cells onto a white, clear-bottomed 96-well plate containing 2× test compounds. Luminescence was read without delay and for 10 seconds per well. To control for cell number variability, cells were lysed in 2× lysis buffer (100 mM CaCl2+0.2% Triton-X) immediately following the assay. The max ligand-induced response (Ca^2+ mobilization: net-miAeq) over 10 seconds was normalized by dividing the ligand-induced luminescence counts (L-miAeq) by the ligand-induced luminescence counts (L-MiAeq) plus the luminescence measured upon cell lysis (Lysis-miAeq). Relative, lysis-normalized data were then normalized to the appropriate control/reference condition.
(§1) For experiments with WT and Gt KO HEK293/S cells, […] of hGHSR1a^WT, 10 μg of miAEQ, and 2.5 μg of pcDNA3.1 was transiently transfected into 10 cm dishes and incubated overnight. […] Twenty-four hours later, experiments proceeded in accordance with the procedures described above. To control for any possible kinetic differences in genetically modified cell lines or GHSR1a variants, the average ligand-induced response over 10 seconds was calculated, then normalized by dividing the L-miAeq by the L-miAeq plus the Lysis-miAeq and normalized to the appropriate control/reference condition.
On the technique in general: Calcium assays in cells follow changes in intracellular calcium, usually with a dye or a luminescent sensor.

For test [3], the target named is T1, hGHSR1a^WT in Gαq/11 KO HEK293/S cells (Homo sapiens, UniProt Q92847).
T1 construct: expressed in transfected cells; SRF-RE reporter); HEK293/S Gαq/11 KO and parental WT (iCa2+)
T1 sequence (Q92847 whole entry): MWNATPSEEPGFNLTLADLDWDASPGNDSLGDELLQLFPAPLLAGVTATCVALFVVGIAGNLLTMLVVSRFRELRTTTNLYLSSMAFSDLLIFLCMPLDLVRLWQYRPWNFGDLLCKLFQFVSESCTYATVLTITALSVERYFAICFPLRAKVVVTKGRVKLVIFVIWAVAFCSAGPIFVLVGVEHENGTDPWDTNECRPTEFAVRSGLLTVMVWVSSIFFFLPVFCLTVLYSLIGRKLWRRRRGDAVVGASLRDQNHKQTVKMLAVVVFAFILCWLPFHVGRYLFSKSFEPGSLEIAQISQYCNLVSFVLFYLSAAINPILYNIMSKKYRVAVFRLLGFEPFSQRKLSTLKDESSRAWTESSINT
Put plainly: iCa2+ in Gαq/11 KO HEK293/S cells. Conditions: 10 μM ligand. On the procedure:
as §1

Chain of hGHSR1a^WT (Q92847 whole entry): as above

As for `CCOc1ccc(C2c3c(oc4ccc(C)cc4c3=O)C(=O)N2CCCN(C)C)cc1OC` (centres unmarked) [NCGC00141956], in test [1], the “Beta-arrestin translocation ECmax (%)” value came to 107% and the concentration for a half-maximal effect (EC50) turned out to be 2310 nM. Further, in test [2] (re-synthesized material), the “activity of re-synthesized molecule in words” value was “could not be confirmed”. Further, the “potency and efficacy relative to L585 in words” value in test [2] (screening sample) was “sub-μM potency and full efficacy”. Further, in test [2], the “Calcium signaling ECmax (%)” value was found to be 105% and the EC50 was found to be 332 nM.
As for `C[C@@H](O)CNC(C)(C)CC(=O)N[C@@H]1CCc2ccccc2N(Cc2ccc(-c3ccccc3-c3nn[nH]n3)cc2)C1=O` [Example L626.585, reference compound], in test [1], the “Beta-arrestin translocation ECmax (%)” value stood at 100% and the concentration giving a half-maximal response (EC50) is 24 nM. Besides, in test [2], the “Calcium signaling ECmax (%)” value was found to be 100% and the EC50 worked out at 14.6 nM. Moreover, the “agonist-induced iCa2+ in Gαq/11 KO cells” value in test [3] is reported as “abolished”.

The EC50 is the concentration giving half of the maximal effect.
